Laboratory results as given in ChEMBL document CHEMBL5154707, “Synthesis and biological evaluation of novel hybrids of phenylsulfonyl furoxan and phenstatin derivatives as potent anti-tumor agents” (Eur J Med Chem, 2022).
Active and inactive are the calls of the source. The rule behind the calls is not given here.

What was measured:
[1] = Cytotoxicity against human HOSE cells after 48 hrs by MTT assay; assay type: toxicity, cell-based
HCT-116 = test: Antiproliferative activity against human HCT-116 cells after 48 hrs by MTT assay; conditions: HCT-116, 48 h
A2780 [2] = test: cells; conditions: Homo sapiens, A2780, 48 h
Description: Antiproliferative activity against human A2780 cells after 48 hrs by MTT assay

MDA-MB-231 = test: cells; conditions: Homo sapiens, MDA-MB-231, 48 h
Description: Antiproliferative activity against human MDA-MB-231 cells after 48 hrs by MTT assay

A549 = test: cells; conditions: Homo sapiens, A549, 48 h
A2780 [3] = test: Induction of nitric oxide release in human A2780 cells measured by Griess reagent based assay; assay type: functional, cell-based
[4] = Antiproliferative activity against human A2780/PTX cells after 48 hrs by MTT assay
A2780cisR = test: Antiproliferative activity against human A2780 cisR cells after 48 hrs by MTT assay; assay type: functional, cell-based
[5] = Resistant factor, ratio of IC50 for antiproliferative activity against human A2780/PTX cells to IC50 for human A2780 cells; assay type: functional
[6] = Resistant factor, ratio of IC50 for antiproliferative activity against human A2780 cisR cells to IC50 for human A2780 cells; assay type: functional
Tubulin = Tubulin (Sus scrofa, UniProt P02554+P02550); test: Inhibition of pig brain tubulin polymerization
Tubulin (Homo sapiens) [7] = biological target: T1, Tubulin (Homo sapiens) (UniProt P68371+Q9H4B7+P0DPH7+P68366+Q13509+Q71U36+P04350+Q3ZCM7+P07437+P68363+Q9BQE3+Q6PEY2+Q13885+Q9BVA1+Q9BUF5); test: Inhibition of tubulin polymerization in A549 cells assessed as disruption of microtubule network at 10 to 20 nM measured by immunofluorescence assay; assay type: cell-based; conditions: dose 10-20 nM
Tubulin (Homo sapiens) [8] = biological target: T1, Tubulin (Homo sapiens); test: Inhibition of tubulin polymerization in A549 cells assessed as disruption of microtubule network at 20 nM measured by immunofluorescence assay; assay type: cell-based

For `CC(=O)O[C@H]1C(=O)[C@@]2(C)[C@H]([C@H](OC(=O)c3ccccc3)[C@]3(O)C[C@H](OC(=O)[C@H](O)[C@@H](NC(=O)c4ccccc4)c4ccccc4)C(C)=C1C3(C)C)[C@]1(OC(C)=O)CO[C@@H]1C[C@@H]2O` [PACLITAXEL], the IC50 at 48 h [1] was 18 nM.

Work on `COc1ccc(C(=O)c2ccc(Cl)cc2)cc1O` yielded an IC50 (HCT-116) of 2650 nM, an IC50 (A2780 [2]) of 3690 nM and an IC50 (MDA-MB-231) of 4180 nM. For the same compound, the IC50 (A549) was 6640 nM.

With `COc1ccc(C(=O)c2ccc3ccccc3c2)cc1O` the IC50 (HCT-116) was 124000 nM, the IC50 (A2780 [2]) was 170 nM and the IC50 (MDA-MB-231) was 120 nM. For the same compound, the IC50 (A549) was 34000 nM.

For `O=S(=O)(c1ccccc1)c1no[n+]([O-])c1S(=O)(=O)c1ccccc1`, the IC50 (HCT-116) was 2680 nM, the Activity (A2780 [3]) was “Active” and the IC50 (MDA-MB-231) was 1870 nM. The IC50 (A549) was 235000 nM.

Compound `COc1ccc(C(=O)c2cc(OC)c(OC)c(OC)c2)cc1O` [PHENSTATIN] has an IC50 (HCT-116) of 170 nM, an IC50 [4] of 9350 nM and an IC50 (A2780cisR) of 2850 nM. For the same compound, the “Ratio IC50” value [5] was 77.9, the “Ratio IC50” value [6] was 23.8 and the IC50 at 48 h [1] was 160 nM. The Activity (A2780 [3]) was “Active”, the IC50 (A2780 [2]) was 120 nM and the IC50 (MDA-MB-231) was 51 nM. It also gave an IC50 (A549) of 21000 nM.

Compound `COc1ccc(/C=C\c2cc(OC)c(OC)c(OC)c2)cc1O` [COMBRETASTATIN A4] has an IC50 (MDA-MB-231) of 12 nM and an IC50 (A549) of 6 nM.

With `COc1cc(OCCOc2no[n+]([O-])c2S(=O)(=O)c2ccccc2)cc(C(=O)c2ccc(Br)cc2)c1` the IC50 (Tubulin) was 1600 nM, the inhibition (Tubulin (Homo sapiens) [7]) was “Active” and the inhibition (Tubulin (Homo sapiens) [8]) was “Active”.

Compound `COc1ccc(C(=O)c2ccc(F)cc2)cc1O` has an IC50 (HCT-116) greater than 20000 nM, an IC50 (A2780 [2]) greater than 20000 nM and an IC50 (MDA-MB-231) greater than 20000 nM. The IC50 (A549) was greater than 20000 nM.

`COc1ccc(C(=O)c2ccc(Br)cc2)cc1O` gave an IC50 (HCT-116) of 3650 nM, an IC50 (A2780 [2]) of 1160 nM and an IC50 (MDA-MB-231) of 2110 nM. It also gave an IC50 (A549) of 224000 nM.
